Where two headings read alike, the source gives them in different places.
Legend:
[1] = system: carboxylesterases (CE) in human liver microsomal extracts; assay: CE activity; assay type: biochemical; conditions: 10μM 876
[2] = system: carboxylesterases (hiCE, hCE1) in human liver microsomal extracts; assay type: biochemical; conditions: for CPT-11 hydrolysis + 876 / Loss in CPT-11 hydrolysis + 876 / Loss in CPT-11 hydrolysis + 876 [%]: 10μM 876

## O=S(=O)(Nc1c(F)c(F)c(NS(=O)(=O)c2ccc(Br)cc2)c(F)c1F)c1ccc(Br)cc1 [compound 876, N,N'-(2,3,5,6-tetrafluoro-1,4-phenylene)bis(4-bromobenzenesulfonamide)]
[1]; liver microsomal extract HG03
  CE activity + 876: 3759 ± 84 nmol/mg/min
  Loss in CE activity + 876: 2816 nmol/mg/min
  Loss in CE activity + 876 [%]: 42.8%
[1]; liver microsomal extract HG74
  CE activity + 876: 4341 ± 152 nmol/mg/min
  Loss in CE activity + 876: 2866 nmol/mg/min
  Loss in CE activity + 876 [%]: 39.8%
[1]; liver microsomal extract HG93
  CE activity + 876: 2938 ± 87 nmol/mg/min
  Loss in CE activity + 876: 1790 nmol/mg/min
  Loss in CE activity + 876 [%]: 37.9%
[1]; liver microsomal extract HG95
  CE activity + 876: 3285 ± 242 nmol/mg/min
  Loss in CE activity + 876: 1840 nmol/mg/min
  Loss in CE activity + 876 [%]: 35.9%
[1]; liver microsomal extract HG103
  CE activity + 876: 2224 ± 202 nmol/mg/min
  Loss in CE activity + 876: 1482 nmol/mg/min
  Loss in CE activity + 876 [%]: 40.0%
[1]; liver microsomal extract HH13
  CE activity + 876: 672 ± 47 nmol/mg/min
  Loss in CE activity + 876: 221 nmol/mg/min
  Loss in CE activity + 876 [%]: 24.8%
[1]; liver microsomal extract HH61
  CE activity + 876: 3925 ± 125 nmol/mg/min
  Loss in CE activity + 876: 1953 nmol/mg/min
  Loss in CE activity + 876 [%]: 33.2%
[1]; liver microsomal extract HH74
  CE activity + 876: 2235 ± 203 nmol/mg/min
  Loss in CE activity + 876: 1471 nmol/mg/min
  Loss in CE activity + 876 [%]: 39.7%
[1]; liver microsomal extract HK37
  CE activity + 876: 4052 ± 120 nmol/mg/min
  Loss in CE activity + 876: 2280 nmol/mg/min
  Loss in CE activity + 876 [%]: 36%
[1]; liver microsomal extract SD003
  CE activity + 876: 3434 ± 224 nmol/mg/min
  Loss in CE activity + 876: 1809 nmol/mg/min
  Loss in CE activity + 876 [%]: 34.5%
[1]; liver microsomal extract SD004
  CE activity + 876: 3460 ± 234 nmol/mg/min
  Loss in CE activity + 876: 2162 nmol/mg/min
  Loss in CE activity + 876 [%]: 38.5%
[1]; liver microsomal extract SD104
  CE activity + 876: 3493 ± 146 nmol/mg/min
  Loss in CE activity + 876: 1895 nmol/mg/min
  Loss in CE activity + 876 [%]: 35.2%
[1]; liver microsomal extract SD120
  CE activity + 876: 2610 ± 102 nmol/mg/min
  Loss in CE activity + 876: 1885 nmol/mg/min
  Loss in CE activity + 876 [%]: 41.9%
[1]; liver microsomal extract SD123
  CE activity + 876: 3874 ± 101 nmol/mg/min
  Loss in CE activity + 876: 2071 nmol/mg/min
  Loss in CE activity + 876 [%]: 34.8%
[1]; liver microsomal extract SD124
  CE activity + 876: 1997 ± 189 nmol/mg/min
  Loss in CE activity + 876: 1411 nmol/mg/min
  Loss in CE activity + 876 [%]: 41.4%
[1]; liver microsomal extract SD128
  CE activity + 876: 4144 ± 401 nmol/mg/min
  Loss in CE activity + 876: 2169 nmol/mg/min
  Loss in CE activity + 876 [%]: 34.4%
[1]; liver microsomal extract SD132
  CE activity + 876: 5018 ± 209 nmol/mg/min
  Loss in CE activity + 876: 3176 nmol/mg/min
  Loss in CE activity + 876 [%]: 38.8%
[1]; liver microsomal extract SD134
  CE activity + 876: 345 ± 28 nmol/mg/min
  Loss in CE activity + 876: 197 nmol/mg/min
  Loss in CE activity + 876 [%]: 36.4%
[1]; liver microsomal extract SD136
  CE activity + 876: 1719 ± 243 nmol/mg/min
  Loss in CE activity + 876: 1477 nmol/mg/min
  Loss in CE activity + 876 [%]: 46.2%
[2]; liver microsomal extract HG03
  CPT-11 hydrolysis + 876: 29.6 ± 0.64 pmol/mg/h
  Loss in CPT-11 hydrolysis + 876: 14.7 pmol/mg/h
  Loss in CPT-11 hydrolysis + 876 [%]: 33.1%
[2]; liver microsomal extract HG74
  CPT-11 hydrolysis + 876: 25.8 ± 1.1 pmol/mg/h
  Loss in CPT-11 hydrolysis + 876: 14.1 pmol/mg/h
  Loss in CPT-11 hydrolysis + 876 [%]: 35.3%
[2]; liver microsomal extract HG93
  CPT-11 hydrolysis + 876: 18.2 ± 0.42 pmol/mg/h
  Loss in CPT-11 hydrolysis + 876: 12.4 pmol/mg/h
  Loss in CPT-11 hydrolysis + 876 [%]: 40.5%
[2]; liver microsomal extract HG95
  CPT-11 hydrolysis + 876: 16.2 ± 0.21 pmol/mg/h
  Loss in CPT-11 hydrolysis + 876: 8.30 pmol/mg/h
  Loss in CPT-11 hydrolysis + 876 [%]: 33.9%
[2]; liver microsomal extract HG103
  CPT-11 hydrolysis + 876: 19.4 ± 0.14 pmol/mg/h
  Loss in CPT-11 hydrolysis + 876: 13.2 pmol/mg/h
  Loss in CPT-11 hydrolysis + 876 [%]: 40.1%
[2]; liver microsomal extract HH13
  CPT-11 hydrolysis + 876: 18.5 ± 0.14 pmol/mg/h
  Loss in CPT-11 hydrolysis + 876: 15.4 pmol/mg/h
  Loss in CPT-11 hydrolysis + 876 [%]: 45.4%
[2]; liver microsomal extract HH61
  CPT-11 hydrolysis + 876: 13.4 ± 0.07 pmol/mg/h
  Loss in CPT-11 hydrolysis + 876: 8.80 pmol/mg/h
  Loss in CPT-11 hydrolysis + 876 [%]: 39.7%
[2]; liver microsomal extract HH74
  CPT-11 hydrolysis + 876: 7.14 ± 0.23 pmol/mg/h
  Loss in CPT-11 hydrolysis + 876: 8.22 pmol/mg/h
  Loss in CPT-11 hydrolysis + 876 [%]: 53.5%
[2]; liver microsomal extract HK37
  CPT-11 hydrolysis + 876: 17.0 ± 0.57 pmol/mg/h
  Loss in CPT-11 hydrolysis + 876: 18.4 pmol/mg/h
  Loss in CPT-11 hydrolysis + 876 [%]: 51.9%
[2]; liver microsomal extract SD003
  CPT-11 hydrolysis + 876: 34.2 ± 0.92 pmol/mg/h
  Loss in CPT-11 hydrolysis + 876: 20.5 pmol/mg/h
  Loss in CPT-11 hydrolysis + 876 [%]: 37.5%
[2]; liver microsomal extract SD004
  CPT-11 hydrolysis + 876: 19.3 ± 1.0 pmol/mg/h
  Loss in CPT-11 hydrolysis + 876: 14.6 pmol/mg/h
  Loss in CPT-11 hydrolysis + 876 [%]: 43.0%
[2]; liver microsomal extract SD104
  CPT-11 hydrolysis + 876: 13.7 ± 0.07 pmol/mg/h
  Loss in CPT-11 hydrolysis + 876: 5.80 pmol/mg/h
  Loss in CPT-11 hydrolysis + 876 [%]: 29.8%
[2]; liver microsomal extract SD120
  CPT-11 hydrolysis + 876: 18.5 ± 0.14 pmol/mg/h
[2]; liver microsomal extract SD123
  CPT-11 hydrolysis + 876: 17 ± 0.14 pmol/mg/h
  Loss in CPT-11 hydrolysis + 876: 13.0 pmol/mg/h
  Loss in CPT-11 hydrolysis + 876 [%]: 43.2%
[2]; liver microsomal extract SD124
  CPT-11 hydrolysis + 876: 15.8 ± 0.28 pmol/mg/h
  Loss in CPT-11 hydrolysis + 876: 11.3 pmol/mg/h
  Loss in CPT-11 hydrolysis + 876 [%]: 41.7%
[2]; liver microsomal extract SD128
  CPT-11 hydrolysis + 876: 16.5 ± 0.35 pmol/mg/h
  Loss in CPT-11 hydrolysis + 876: 13.1 pmol/mg/h
  Loss in CPT-11 hydrolysis + 876 [%]: 44.3%
[2]; liver microsomal extract SD132
  CPT-11 hydrolysis + 876: 14.1 ± 0.50 pmol/mg/h
  Loss in CPT-11 hydrolysis + 876: 12.6 pmol/mg/h
  Loss in CPT-11 hydrolysis + 876 [%]: 47.2%
[2]; liver microsomal extract SD134
  CPT-11 hydrolysis + 876: 8.49 ± 0.18 pmol/mg/h
  Loss in CPT-11 hydrolysis + 876: 8.96 pmol/mg/h
  Loss in CPT-11 hydrolysis + 876 [%]: 51.3%
[2]; liver microsomal extract SD136
  CPT-11 hydrolysis + 876: 33.6 ± 0.64 pmol/mg/h
  Loss in CPT-11 hydrolysis + 876: 21.8 pmol/mg/h
  Loss in CPT-11 hydrolysis + 876 [%]: 39.3%
[2]; selective hiCE inhibitor 876
  effect on CPT-11 activation in liver microsomal samples: unable to reduce the levels of CPT-11 activation in liver microsomal samples to zero

From article PMC2991631 (Biochemical pharmacology, 2010)
